The conditions of assay [1]: 10 patients, nine with disease progression on prior immunotherapy; cited from earlier work.
In the next assay the test system is urothelial cancer. Put plainly: Best response to prior chemotherapy before study enrolment, per investigator assessment. As to conditions: first-line chemotherapy before study enrolment; across all regimens. It is filed as in vivo, human.

Description for urothelial cancer: Across all regimens, 184 patients had received first-line platinum-based chemotherapy, 83 had received second-line chemotherapy, and 24 had received third-line chemotherapy before study enrolment.

For `COCc1c(-c2cc3cc(C)cc(OC)c3s2)c2c(N)ncnn2c1CN1CCNC(=O)C1` [rogaratinib], the patients who responded in assay [1] was 30%.
As for gemcitabine plus cisplatin, in the assay with urothelial cancer, the “best ORR per investigator assessment” value is on record as 35%.

Source of the values: patent US12691112B2, “FGFR tyrosine kinase inhibitors for the treatment of urothelial carcinoma” (Janssen Pharmaceutica NV, priority 2019, dated 2026).
